“And” between values parts separate entries of the source, which are not always exact repeats. Equal entries are not always repeated. Where two headings read alike, the source gives them in different places.
How the values were obtained:
[1] = test system: γH2AX; assay: Acute DAU-induced DNA damage (γH2AX) in rabbit LV myocardium; type: in vivo; set-up: γH2AX in LV myocardium: scale not given here; conditions: for γH2AX in LV myocardium: individual animals
Procedure: For the determination of γH2aX protein in in vivo experiments, pulverized rabbit LV samples were homogenized in commercial 1× SDS Lysis Buffer (PhosphoSolutions) with phosphatase and protease inhibitor solutions (Thermo Fisher Scientific and Roche, respectively) and boiled at 95 °C for 10 min. Protein concentrations were assessed by the BCA Protein Assay Kit (Sigma-Aldrich), and 85 μg of protein were loaded into Mini-PROTEAN 12% TGX Precast Stain-free Gel (Bio-Rad). After separation, the proteins were transferred onto a nitrocellulose membrane using a Trans-Blot Turbo System (all Bio-Rad). Mouse monoclonal anti-γH2AX (1:800, ab26350, Abcam) was used as the primary antibody, and horseradish peroxidase-conjugated goat anti-mouse immunoglobulin (1:1000, P044701, DAKO) was used as the secondary antibody. The BM Chemiluminescence Blotting Substrate (Roche) and Fusion Solo S coupled with CCD camera (Vilber) were used for signal detection.
Rabbits (n = 24) were divided equally into four groups (n = 6 in each) receiving a single dose as follows: DAU (3 mg/kg, i.v. bolus), saline (1 ml/kg, i.v., the control group), topobexin (9) alone (10 mg/kg, prepared and administered as describe above in the pharmacokinetic study, i.e., in 20 min i.v. infusion) and the combination group (topobexin (9) 10 mg/kg via 20 min i.v. infusion followed by DAU 3 mg/kg as i.v. bolus into the contralateral ear 40 min after the end of topobexin (9) infusion). Based on preliminary data, the experiment was completed 90 min after administration of DAU or saline. The heart was excised and γH2AX as a marker of DNA damage was determined in myocardial homogenates using Western blotting as described above.

[2] = biological target: T1, recombinant human TOP2B (Homo sapiens, UniProt Q02880); assay: DNA decatenation assay, recombinant TOP2B; type: biochemical; conditions: for SRbeta (SRTOP2B), decatenation activity: TOP2A IC50 divided by TOP2B IC50; for IC50: enzyme expressed in HEK293F, n=3
T1 construct: Using recombinant full-length human TOP2A and TOP2B enzymes; YFP (N, cleaved yes); made in house; host or cells: HEK293F
Procedure: (§1) The human topoisomerase II decatenation assay was performed to determine the inhibitory effects of BNS-22 and new compounds as previously described with minor modifications[14],[36]. The assay was performed using recombinant human TOP2A or TOP2B generated using the HEK293F YFP-tag expression system as previously described[18],[19],[36]. Briefly, plasmids encoding YFP-TOP2A or YFP-TOP2B were transfected into HEK293F cells (Catalog number 11625019, Thermofisher Scientific), and TOP2 proteins were isolated from cell lysates by anti-YFP nanobody affinity chromatography. After elution by TEV protease cleavage, TOP2 proteins were FPLC purified by sequential cation exchange and size exclusion chromatography. Plasmid encoding TOP2B C88Y was generated by round-the-horn PCR mutagenesis and the sequence was verified by full-plasmid sequencing. Purified TOP2 proteins were stored in a storage buffer containing 20 mM HEPES pH 7.5, 500 mM NaCl, 0.5 mM TCEP, 25% (v/v) glycerol at -80 °C. For decatenation assays, purified TOP2 proteins were incubated with 200 ng kDNA (Topogen) in a reaction buffer containing 50 mM Tris−HCl (pH 8), 100 mM NaCl, 10 mM MgCl2, 0.5 mM DTT, 2 mM ATP, 0.1 mM tris(2-carboxyethyl)phosphine (TCEP), 5% (v/v) glycerol, 70 μg/mL bovine serum albumin, and 1/10 volume of each compound diluted in 10% DMSO (final DMSO concentration 1%) for 40 min at 37 °C. The reaction was then stopped by the addition of gel loading buffer (0.5 volumes of 60% (w/v) glycerol, 60 mM EDTA, 20 mM Tris−HCl (pH 7.5), 0.5 mg/mL bromophenol blue) and the samples were placed on ice. Reaction products were resolved by agarose gel electrophoresis in TBE buffer containing GelRed stain (Biotium). Gels were visualized using an iBright CL1000 (Thermofisher Scientific). Band intensities were quantified using FIJI, and the signal of the treated samples was normalized to the value of the control (untreated sample; 100%) present on the same gel. The normalized signal of three independent measurements was then expressed as mean ± SD. Each presented data point was obtained from distinct sample. Normalized values were plotted as a function of inhibitor concentration to determine IC50 values by nonlinear regression with variable slope using Prism 9 (GraphPad).

[3] = biological target: T1, recombinant human TOP2B; assay: In vitro ATPase activity of TOP2B (coupled assay); type: biochemical; conditions: for SRbeta (SRTOP2B), TOP2 ATPase activity: TOP2A IC50 divided by TOP2B IC50; for IC50: n=3
Summary of the method: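 Recombinant human TOP2A or TOP2B, prediluted to 500 nM in HEPES pH 7.5/500 mM NaCl storage buffer, in an NADH-coupled ATP hydrolysis assay, ATP-initiated at 30 °C. NADH fluorescence decay (ex 340, em 480) read every 30 s for 120 cycles. Slopes background-corrected, normalized to untreated controls, and fitted for IC50.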

[4] = biological target: T2, recombinant human TOP2A (Homo sapiens, UniProt P11388); assay: DNA decatenation assay, recombinant TOP2A; type: biochemical; conditions: for IC50: enzyme expressed in HEK293F, n=3
T2 construct: Using recombinant full-length human TOP2A and TOP2B enzymes; YFP (N, cleaved yes); made in house; host or cells: HEK293F
Procedure: as §1

[5] = independent replicates, read-out: Normalized % TOP2B activity, ATPase
[6] = independent replicates, normalized to 0 drug, read-out: Normalized % TOP2B activity

T1 sequence (Q02880 1-1621 isoform Q02880-2): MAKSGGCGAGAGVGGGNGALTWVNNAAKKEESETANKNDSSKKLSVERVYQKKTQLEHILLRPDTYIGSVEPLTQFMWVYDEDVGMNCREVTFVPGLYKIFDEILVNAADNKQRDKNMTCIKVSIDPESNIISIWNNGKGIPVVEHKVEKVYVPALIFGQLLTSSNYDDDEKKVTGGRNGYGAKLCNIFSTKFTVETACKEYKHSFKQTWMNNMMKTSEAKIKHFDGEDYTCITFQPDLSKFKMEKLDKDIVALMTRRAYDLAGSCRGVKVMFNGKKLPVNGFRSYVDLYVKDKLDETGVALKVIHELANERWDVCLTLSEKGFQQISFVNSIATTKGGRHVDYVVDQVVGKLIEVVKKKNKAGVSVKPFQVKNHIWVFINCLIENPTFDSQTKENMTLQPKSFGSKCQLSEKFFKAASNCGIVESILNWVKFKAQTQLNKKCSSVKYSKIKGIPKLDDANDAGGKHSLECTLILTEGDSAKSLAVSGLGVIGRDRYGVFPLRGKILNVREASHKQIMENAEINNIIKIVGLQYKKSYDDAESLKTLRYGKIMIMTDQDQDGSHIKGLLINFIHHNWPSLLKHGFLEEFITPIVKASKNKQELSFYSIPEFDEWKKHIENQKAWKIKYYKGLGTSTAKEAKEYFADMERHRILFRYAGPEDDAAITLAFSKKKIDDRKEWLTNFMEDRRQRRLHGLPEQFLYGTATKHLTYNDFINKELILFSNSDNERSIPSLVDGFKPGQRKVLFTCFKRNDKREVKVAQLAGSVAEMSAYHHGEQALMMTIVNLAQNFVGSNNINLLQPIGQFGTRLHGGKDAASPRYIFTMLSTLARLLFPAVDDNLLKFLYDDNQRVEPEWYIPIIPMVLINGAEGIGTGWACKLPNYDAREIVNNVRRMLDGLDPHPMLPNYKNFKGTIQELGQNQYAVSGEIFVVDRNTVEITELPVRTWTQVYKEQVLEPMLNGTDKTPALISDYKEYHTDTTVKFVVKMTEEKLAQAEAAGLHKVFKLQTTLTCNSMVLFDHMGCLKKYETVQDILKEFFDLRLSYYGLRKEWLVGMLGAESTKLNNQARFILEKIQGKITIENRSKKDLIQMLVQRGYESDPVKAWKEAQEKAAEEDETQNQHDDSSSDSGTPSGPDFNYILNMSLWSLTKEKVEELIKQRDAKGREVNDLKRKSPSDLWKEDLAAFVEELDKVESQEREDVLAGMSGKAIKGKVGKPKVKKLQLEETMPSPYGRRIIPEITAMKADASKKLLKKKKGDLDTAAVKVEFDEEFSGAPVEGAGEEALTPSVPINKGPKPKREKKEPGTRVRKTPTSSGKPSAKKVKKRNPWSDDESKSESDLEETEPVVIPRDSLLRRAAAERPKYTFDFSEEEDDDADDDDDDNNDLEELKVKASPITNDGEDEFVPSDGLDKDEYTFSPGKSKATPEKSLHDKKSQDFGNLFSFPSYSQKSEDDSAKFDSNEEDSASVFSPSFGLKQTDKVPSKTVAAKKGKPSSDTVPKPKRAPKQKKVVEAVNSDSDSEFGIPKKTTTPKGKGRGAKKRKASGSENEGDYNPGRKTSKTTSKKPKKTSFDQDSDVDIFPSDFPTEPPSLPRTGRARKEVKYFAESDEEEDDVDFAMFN
T2 sequence (P11388 whole entry): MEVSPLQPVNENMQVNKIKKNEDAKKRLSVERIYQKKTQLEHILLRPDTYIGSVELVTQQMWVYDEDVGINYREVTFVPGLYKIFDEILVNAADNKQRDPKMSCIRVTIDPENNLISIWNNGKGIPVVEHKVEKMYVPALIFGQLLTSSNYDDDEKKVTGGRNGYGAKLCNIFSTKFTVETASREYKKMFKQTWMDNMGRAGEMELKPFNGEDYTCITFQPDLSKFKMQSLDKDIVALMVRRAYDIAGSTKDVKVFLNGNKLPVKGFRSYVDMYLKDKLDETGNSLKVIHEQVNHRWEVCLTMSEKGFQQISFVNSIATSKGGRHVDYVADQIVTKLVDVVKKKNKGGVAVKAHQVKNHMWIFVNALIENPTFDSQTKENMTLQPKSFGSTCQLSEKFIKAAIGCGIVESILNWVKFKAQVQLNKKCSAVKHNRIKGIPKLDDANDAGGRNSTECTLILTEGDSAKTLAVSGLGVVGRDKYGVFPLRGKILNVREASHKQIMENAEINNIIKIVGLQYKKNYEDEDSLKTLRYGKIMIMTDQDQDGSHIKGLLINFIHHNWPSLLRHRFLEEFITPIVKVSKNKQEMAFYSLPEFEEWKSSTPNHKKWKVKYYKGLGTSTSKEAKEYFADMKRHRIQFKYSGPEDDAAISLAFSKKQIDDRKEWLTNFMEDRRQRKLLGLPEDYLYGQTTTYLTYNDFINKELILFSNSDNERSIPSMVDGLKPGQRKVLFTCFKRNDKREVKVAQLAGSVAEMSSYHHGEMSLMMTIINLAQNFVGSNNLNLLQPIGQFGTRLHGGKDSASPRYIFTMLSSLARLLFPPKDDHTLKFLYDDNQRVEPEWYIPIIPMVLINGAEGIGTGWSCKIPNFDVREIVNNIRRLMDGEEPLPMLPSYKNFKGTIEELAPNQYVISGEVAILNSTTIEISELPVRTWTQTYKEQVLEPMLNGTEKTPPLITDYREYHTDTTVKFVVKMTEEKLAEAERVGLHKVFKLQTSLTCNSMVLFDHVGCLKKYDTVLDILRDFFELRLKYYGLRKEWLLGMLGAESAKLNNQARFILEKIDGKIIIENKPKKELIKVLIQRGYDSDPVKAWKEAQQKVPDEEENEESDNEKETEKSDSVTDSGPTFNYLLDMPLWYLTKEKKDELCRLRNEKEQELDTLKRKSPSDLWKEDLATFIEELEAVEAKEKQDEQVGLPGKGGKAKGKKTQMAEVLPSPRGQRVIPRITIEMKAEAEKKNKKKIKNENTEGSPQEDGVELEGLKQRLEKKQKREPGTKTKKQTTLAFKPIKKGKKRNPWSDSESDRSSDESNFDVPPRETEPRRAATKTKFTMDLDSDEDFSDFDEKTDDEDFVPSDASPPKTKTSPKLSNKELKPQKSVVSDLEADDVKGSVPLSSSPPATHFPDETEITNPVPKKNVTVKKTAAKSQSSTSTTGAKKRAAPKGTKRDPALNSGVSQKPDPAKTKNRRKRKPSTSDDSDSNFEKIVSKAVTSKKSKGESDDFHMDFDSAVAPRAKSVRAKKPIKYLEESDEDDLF

COc1cccc2c1C(=O)c1c(O)c3c(c(O)c1C2=O)C[C@@](O)(C(C)=O)C[C@@H]3O[C@H]1C[C@H](N)[C@H](O)[C@H](C)O1 [DAU, daunorubicin, reference compound]
γH2AX in LV myocardium ([1]; DAU 3 mg/kg alone, 1.5 h): 10.11 and 5.83 and 6.97 and 6.98 and 3.35 and 7.46

C[C@@H](CN1CC(=O)NC(=O)C1)N1CC(=O)NC(=O)C1 [dexrazoxane]
remaining activity at 0.029 µM ([2]; 0.029 μM, independent replicates, read-out: Normalized % TOP2B activity, decatenation): 88.8% | remaining activity at 0.469 µM ([2]; 0.469 μM, independent replicates, read-out: Normalized % TOP2B activity, decatenation): 75.2% | remaining activity at 15 µM ([2]; 15.000 μM, independent replicates, read-out: Normalized % TOP2B activity, decatenation): 12.9% | remaining activity at 30 µM ([2]; 30.000 μM, independent replicates, read-out: Normalized % TOP2B activity, decatenation): 5.87% | SRbeta (SRTOP2B), decatenation activity [2]: 0.75 | IC50 [2]: 4500 nM | remaining activity at 0.03125 µM ([3]; 0.03125 μM, independent replicates, read-out: Normalized % TOP2B activity, ATPase): 97.9% | remaining activity at 0.0625 µM [3, 5]: 99.9% | remaining activity at 0.125 µM [3, 5]: 96.3% | remaining activity at 0.25 µM [3, 5]: 88.7% | remaining activity at 0.5 µM [3, 5]: 80.9% | remaining activity at 1 µM [3, 5]: 74.8% | remaining activity at 2 µM [3, 5]: 68.4% | remaining activity at 4 µM [3, 5]: 45% | remaining activity at 8 µM [3, 5]: 24.3% | remaining activity at 16 µM ([3]; 16 μM, independent replicates, read-out: Normalized % TOP2B activity, ATPase): 14.6% | remaining activity at 32 µM ([3]; 32 μM, independent replicates, read-out: Normalized % TOP2B activity, ATPase): 13.2% | relative inhibition of TOP2A vs TOP2B ([3]; ATPase): inhibits ATP hydrolysis for both isoforms with equal potency | SRbeta (SRTOP2B), TOP2 ATPase activity [3]: 0.89 | IC50 [3]: 2550 nM | remaining activity at 0.059 µM ([4]; 0.059 μM, independent replicates, read-out: Normalized % TOP2A activity, decatenation): 112% | remaining activity at 0.469 µM ([4]; 0.469 μM, independent replicates, read-out: Normalized % TOP2A activity, decatenation): 114% | remaining activity at 0.938 µM ([4]; 0.938 μM, independent replicates, read-out: Normalized % TOP2A activity, decatenation): 94.4% | remaining activity at 1.875 µM ([4]; 1.875 μM, independent replicates, read-out: Normalized % TOP2A activity, decatenation): 68.7% | remaining activity at 7.5 µM ([4]; 7.500 μM, independent replicates, read-out: Normalized % TOP2A activity, decatenation): 33.6% | IC50 [4]: 3.35 µM

CCCc1cc(=O)oc2c(C(=O)N3CCCc4ccccc43)c(OCCN3CCN(C)CC3)ccc12 [topobexin (9)]
DAU-induced DNA damage (γH2AX) in LV myocardium ([1]; 10 mg/kg before DAU 3 mg/kg, 1.5 h after DAU): effectively prevent induction of DNA damage | γH2AX in LV myocardium ([1]; Topobexin alone 10 mg/kg): 1.55 and 1.42 and 1.45 and 1.03 and 1.17 and 1.33 | γH2AX in LV myocardium ([1]; Topobexin+DAU): 1.79 and 1.30 and 1.64 and 0.82 and 1.38 and 2.72 | remaining activity at 0.039 µM ([2]; 0.039 μM, independent replicates, read-out: Normalized % TOP2B activity, decatenation): 92.3% | remaining activity at 0.313 µM ([2]; 0.313 μM, independent replicates, read-out: Normalized % TOP2B activity, decatenation): 29.3% | remaining activity at 0.625 µM ([2]; 0.625 μM, independent replicates, read-out: Normalized % TOP2B activity, decatenation): 15.5% | remaining activity at 1.25 µM ([2]; 1.250 μM, independent replicates, read-out: Normalized % TOP2B activity, decatenation): 10.9% | remaining activity at 2.5 µM ([2]; 2.500 μM, independent replicates, read-out: Normalized % TOP2B activity, decatenation): 11.1% | remaining activity at 5 µM ([2]; 5.000 μM, independent replicates, read-out: Normalized % TOP2B activity, decatenation): 9.87% | remaining activity at 20 µM ([2]; 20.000 μM, independent replicates, read-out: Normalized % TOP2B activity, decatenation): 5.03% | SRbeta (SRTOP2B), decatenation activity [2]: 25 | IC50 [2]: 190 nM | remaining activity at 0.0625 µM [3, 6]: 96.9% | remaining activity at 0.125 µM [3, 6]: 95.3% | remaining activity at 0.25 µM [3, 6]: 95.6% | remaining activity at 0.5 µM [3, 6]: 87% | remaining activity at 1 µM [3, 6]: 74% | remaining activity at 1 µM [3, 5]: 16.4% | remaining activity at 2 µM [3, 6]: 48.9% | remaining activity at 4 µM [3, 6]: 23.7% | remaining activity at 8 µM [3, 6]: 9.64% | SRbeta (SRTOP2B), TOP2 ATPase activity [3]: 12 | IC50 [3]: 350 nM | remaining activity at 0.02 µM ([4]; 0.02 μM, independent replicates, read-out: Normalized % TOP2A activity, decatenation): 87.1% | remaining activity at 0.313 µM ([4]; 0.313 μM, independent replicates, read-out: Normalized % TOP2A activity, decatenation): 96.1% | remaining activity at 0.625 µM ([4]; 0.625 μM, independent replicates, read-out: Normalized % TOP2A activity, decatenation): 91.5% | IC50 [4]: 4.8 µM

Reference: paper PMC12116762, “Topobexin targets the Topoisomerase II ATPase domain for beta isoform-selective inhibition and anthracycline cardioprotection” (Nature Communications, 2025)
